System: KRS and 67LR
Test: Co-immunoprecipitation of KRS with 67LR
Format: cell-based, human
Conditions: 10 ug/ml of laminin for 1 hr; immunoprecipitation with 67LR antibody; FIG. 6
Method: FIGS. 1 to 6 show specific interaction between human KRS and laminin receptor. In FIG. 1, the interaction between full-length human KRS and 37LRP/p40 was determined by yeast two hybrid assay. AIMP1 and AIMP2, the two components of the multi-ARS complex, were used as positive and negative control, respectively. The positive interaction is indicated by blue colony formation on yeast medium containing X-gal. In FIG. 2, 37LRP was synthesized by in vitro translation in the presence of [^35S] methionine and subjected to pull-down with GST-KRS or GST. 37LRP co-precipitated with GST-KRS was detected by autoradiography. In FIG. 3, The peptide regions of KRS and 37LRP involved in their interaction was determined by yeast two hybrid assay as above. […] Myc-KRS was immunoprecipitated with anti-Myc antibody and co-precipitated 67LR and 37LRP were determined by immunoblotting. […] The cells were separated to cytoplasmic and membrane fractions and immunoprecipitated with anti-Myc antibody and co-precipitation of 37LRP and 67LR was determined by Western blotting. […]
In FIG. 7, A549 cells were treated with laminin (10 ug/ml) and the level of 67LR, 37LRP and KRS was determined by Western blotting at the indicated times. […] Myc-KRS was immunoprecipitated and co-precipitation of 67LR was determined by Western blotting. […]

- binding of 67LR and KRS: increased
Substance: laminin: laminin (Engelbreth-Holm-Swarm murine sarcoma) from Sigma
